Results as given in patent US20250114374A1, “BCL-2 INHIBITORS” (Newave Pharmaceutical Inc., priority 2021, published 2025).
Where two headings read alike, the source gives them in different places.

Tested on: RS4; 11 with G101V mutation
Assay: In vitro anti-proliferation assay (ATPlite luminescence) in BCL-2-dependent ALL cell line RS4;11 with G101V mutation
Assay type: cell-based
Conditions: read-out: RS411-G101V IC50
Method in brief: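 IC50 came from luminescent ATP quantification (ATPlite) following cell lysis. Compound dose ranges were applied for roughly 72 h to about 1×10^4 G101V-mutant RS4;11 cells per well, in 10% FBS medium.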

[1] = cellular anti-proliferative IC50, about 72 hours, medium with 10% FBS, ATPlite

| SMILES | IC50 (Homo sapiens, RS4-11, 72 h) [nM] | IC50 [1] [nM] |
| --- | --- | --- |
| COc1cc(CN2CCN(C3CC4(CCN(c5ccc(C(=O)NS(=O)(=O)c6cc7c(c([N+](=O)[O-])c6)N[C@H](C6CCOCC6)CO7)c(N6c7cc8cc[nH]c8nc7O[C@H]7COCC[C@@H]76)c5)CC4)C3)[C@H](c3ccccc3C)C2)cnc1N1CCOCC1 [Example 143, 4-(2-((R)-4-((5-methoxy-6-morpholinopyridin-3-yl)methyl)-2-(o-tolyl)piperazin-1-yl)-7-azaspiro[3.5]nonan-7-yl)-N-(((R)-5-nitro-3-(tetrahydro-2H-pyran-4-yl)-3,4-dihydro-2H-benzo[b][1,4]oxazin-7-yl)sulfonyl)-2-((5aS,9aR)-6,7,9,9a-tetrahydro-1H-pyrano[3,4-b]pyrrolo[3′,2′:5,6]pyrido[3,2-e][1,4]oxazin-5(5aH)-yl)benzamide] | 7 |  |
| Cc1cc2c(CN3CCN(C4CC5(CCN(c6ccc(C(=O)NS(=O)(=O)c7cc8c(c([N+](=O)[O-])c7)N[C@H](C7CCOCC7)CO8)c(N7c8cc9cc[nH]c9nc8O[C@H]8COCC[C@@H]87)c6)CC5)C4)[C@H](c4ccccc4C)C3)cnc(N3CCOC[C@@H]3C)c2o1 [Example 191, 2-[(3R,8S)-2,5-dioxa-9,15,17-triazatetracyclo[8.7.0.0^{3,8}.0^{12,16}]heptadeca-1(10),11,13,16-tetraen-9-yl]-4-{2-[(2R)-4-({2-methyl-7-[(3S)-3-methylmorpholin-4-yl]furo[2,3-c]pyridin-4-yl}methyl)-2-(2-methylphenyl)piperazin-1-yl]-7-azaspiro[3.5]nonan-7-yl}-N-[(3R)-5-nitro-3-(oxan-4-yl)-3,4-dihydro-2H-1,4-benzoxazin-7-ylsulfonyl]benzamide] |  | 14.2 |
| CC(C)Oc1ccccc1[C@@H]1CN([C@H]2CCOc3nc(N4CCOC[C@@H]4C)c(F)cc32)CCN1C1CC2(CCN(c3ccc(C(=O)NS(=O)(=O)c4cc5c(c([N+](=O)[O-])c4)N[C@H](C4CCOCC4)CO5)c(N4c5cc6cc[nH]c6nc5O[C@H]5COCC[C@@H]54)c3)CC2)C1 [Example 218, 4-(2-((R)-4-((S)-6-fluoro-7-((S)-3-methylmorpholino)-3,4-dihydro-2H-pyrano[2,3-b]pyridin-4-yl)-2-(2-isopropoxyphenyl)piperazin-1-yl)-7-azaspiro[3.5]nonan-7-yl)-N-(((R)-5-nitro-3-(tetrahydro-2H-pyran-4-yl)-3,4-dihydro-2H-benzo[b][1,4]oxazin-7-yl)sulfonyl)-2-((5aS,9aR)-6,7,9,9a-tetrahydro-1H-pyrano[3,4-b]pyrrolo[3′,2′:5,6]pyrido[3,2-e][1,4]oxazin-5(5aH)-yl)benzamide] | 121 |  |
| Cc1ccccc1[C@@H]1CN(C2CCN(C3CCOCC3)CC2)CCN1C1CC2(CCN(c3ccc(C(=O)NS(=O)(=O)c4cc5c(c([N+](=O)[O-])c4)N[C@H](C4CCOCC4)CO5)c(N4c5cc6cc[nH]c6nc5O[C@H]5COCC[C@@H]54)c3)CC2)C1 [Example 201, 2-[(3R,8S)-2,5-dioxa-9,15,17-triazatetracyclo[8.7.0.0^{3,8}.0^{12,16}]heptadeca-1(10),11,13,16-tetraen-9-yl]-4-{2-[(2R)-2-(2-methylphenyl)-4-[1-(oxan-4-yl)piperidin-4-yl]piperazin-1-yl]-7-azaspiro[3.5]nonan-7-yl}-N-[(3R)-5-nitro-3-(oxan-4-yl)-3,4-dihydro-2H-1,4-benzoxazin-7-ylsulfonyl]benzamide] |  | 232 |
| Cc1ccccc1[C@@H]1CN(C2CCC(C)(O)CC2)CCN1C1CC2(CCN(c3ccc(C(=O)NS(=O)(=O)c4ccc(NCC5CCC(C)(O)CC5)c([N+](=O)[O-])c4)c(N4c5cc6cc[nH]c6nc5O[C@H]5COCC[C@@H]54)c3)CC2)C1 (stereo partly drawn) [Example 112, 2-[(3R,8S)-2,5-dioxa-9,15,17-triazatetracyclo[8.7.0.0^{3,8}.0^{12,16}]heptadeca-1(10),11,13,16-tetraen-9-yl]-4-{2-[(2R)-2-(2-methylphenyl)-4-[(1r,4r)-4-hydroxy-4-methylcyclohexyl]piperazin-1-yl]-7-azaspiro[3.5]nonan-7-yl}-N-[3-nitro-4-({[(1r,4r)-4-hydroxy-4-methylcyclohexyl]methyl}amino)benzenesulfonyl]benzamide] |  | 10.9 |
| CC(C)Oc1ccccc1[C@@H]1CN([C@@H]2COCc3c(F)cc(F)cc32)CCN1C1CC2(CCN(c3ccc(C(=O)NS(=O)(=O)c4cc5c(c([N+](=O)[O-])c4)N[C@H](C4CCOCC4)CO5)c(N4c5cc6cc[nH]c6nc5O[C@H]5COCC[C@@H]54)c3)CC2)C1 [Example 231, 4-(2-((R)-4-((S)-6,8-difluoroisochroman-4-yl)-2-(2-isopropoxyphenyl)piperazin-1-yl)-7-azaspiro[3.5]nonan-7-yl)-N-(((R)-5-nitro-3-(tetrahydro-2H-pyran-4-yl)-3,4-dihydro-2H-benzo[b][1,4]oxazin-7-yl)sulfonyl)-2-((5aS,9aR)-6,7,9,9a-tetrahydro-1H-pyrano[3,4-b]pyrrolo[3′,2′:5,6]pyrido[3,2-e][1,4]oxazin-5(5aH)-yl)benzamide] | 94.7 |  |
| CC(C)Oc1ccccc1[C@@H]1CN(Cc2cccnc2)CCN1C1CC2(CCN(c3ccc(C(=O)NS(=O)(=O)c4cc5c(c([N+](=O)[O-])c4)N[C@H](C4CCOCC4)CO5)c(N4c5cc6cc[nH]c6nc5O[C@H]5COCC[C@@H]54)c3)CC2)C1 [Example 253, 4-(2-((R)-2-(2-isopropoxyphenyl)-4-(pyridin-3-ylmethyl)piperazin-1-yl)-7-azaspiro[3.5]nonan-7-yl)-N-(((R)-5-nitro-3-(tetrahydro-2H-pyran-4-yl)-3,4-dihydro-2H-benzo[b][1,4]oxazin-7-yl)sulfonyl)-2-((5aS,9aR)-6,7,9,9a-tetrahydro-1H-pyrano[3,4-b]pyrrolo[3′,2′:5,6]pyrido[3,2-e][1,4]oxazin-5(5aH)-yl)benzamide] | 10.2 |  |
| CC(C)c1ccccc1[C@@H]1CN(Cc2ccc(F)c(F)c2)CCN1C1CC2(CCN(c3ccc(C(=O)NS(=O)(=O)c4ccc(NCC5CCOCC5)c([N+](=O)[O-])c4)c(N4c5cc6cc[nH]c6nc5O[C@H]5COCC[C@@H]54)c3)CC2)C1 [Example 165, 4-{2-[(2R)-4-[(3,4-difluorophenyl)methyl]-2-(2-isopropylphenyl)piperazin-1-yl]-7-azaspiro[3.5]nonan-7-yl}-2-[(3R,8S)-2,5-dioxa-9,15,17-triazatetracyclo[8.7.0.0^{3,8}.0^{12,16}]heptadeca-1(10),11,13,16-tetraen-9-yl]-N-{3-nitro-4-[(oxan-4-ylmethyl)amino]benzenesulfonyl}benzamide] |  | 10.9 |
| CC(C)Oc1ccccc1[C@@H]1CN(Cc2ccc(F)c(F)c2)CCN1C1CC2(CCN(c3ncc(C(=O)NS(=O)(=O)c4cc5c(c([N+](=O)[O-])c4)N[C@H](C4CCOCC4)CO5)c(N4c5cc6cc[nH]c6nc5O[C@H]5COCC[C@@H]54)c3F)CC2)C1 [Example 228, 6-{2-[(2R)-4-[(3,4-difluorophenyl)methyl]-2-(2-isopropoxyphenyl)piperazin-1-yl]-7-azaspiro[3.5]nonan-7-yl}-4-[(3R,8S)-2,5-dioxa-9,15,17-triazatetracyclo[8.7.0.0^{3,8}.0^{12,16}]heptadeca-1(10),11,13,16-tetraen-9-yl]-5-fluoro-N-[(3R)-5-nitro-3-(oxan-4-yl)-3,4-dihydro-2H-1,4-benzoxazin-7-ylsulfonyl]pyridine-3-carboxamide] |  | 202 |
| CNc1ccc(CN2CCN(C3CC4(CCN(c5ccc(C(=O)NS(=O)(=O)c6cc7c(c([N+](=O)[O-])c6)N[C@H](C6CCOCC6)CO7)c(N6c7cc8cc[nH]c8nc7O[C@H]7COCC[C@@H]76)c5)CC4)C3)[C@H](c3ccccc3OC(C)C)C2)cn1 [Example 259, 2-[(3R,8S)-2,5-dioxa-9,15,17-triazatetracyclo[8.7.0.0^{3,8}.0^{12,16}]heptadeca-1(10),11,13,16-tetraen-9-yl]-4-{2-[(2R)-2-(2-isopropoxyphenyl)-4-{[6-(methylamino)pyridin-3-yl]methyl}piperazin-1-yl]-7-azaspiro[3.5]nonan-7-yl}-N-[(3R)-5-nitro-3-(oxan-4-yl)-3,4-dihydro-2H-1,4-benzoxazin-7-ylsulfonyl]benzamide] |  | 9.72 |
| Cc1ccccc1[C@@H]1CN(Cc2ccc(F)c(F)c2)CCN1C1CC2(CCN(c3ccc(C(=O)NS(=O)(=O)c4ccc(NCC5CCOCC5)c([N+](=O)[O-])c4)c(N4c5cc6cc[nH]c6nc5O[C@H]5COCC[C@@H]54)c3)CC2)C1 [Example 164, 4-{2-[(2R)-4-[(3,4-difluorophenyl)methyl]-2-(2-methylphenyl)piperazin-1-yl]-7-azaspiro[3.5]nonan-7-yl}-2-[(3R,8S)-2,5-dioxa-9,15,17-triazatetracyclo[8.7.0.0^{3,8}.0^{12,16}]heptadeca-1(10),11,13,16-tetraen-9-yl]-N-{3-nitro-4-[(oxan-4-ylmethyl)amino]benzenesulfonyl}benzamide] |  | 48.5 |
| COc1cc(CN2CCN(C3CC4(CCN(c5ccc(C(=O)NS(=O)(=O)c6cc7c(c([N+](=O)[O-])c6)N[C@H](C6CCOCC6)CO7)c(N6c7cc8cc[nH]c8nc7O[C@H]7COCC[C@@H]76)c5)CC4)C3)[C@H](c3ccccc3C(C)C)C2)cnc1N1CCOC[C@@H]1C [Example 172, 2-[(3R,8S)-2,5-dioxa-9,15,17-triazatetracyclo[8.7.0.0^{3,8}.0^{12,16}]heptadeca-1(10),11,13,16-tetraen-9-yl]-4-{2-[(2R)-2-(2-isopropylphenyl)-4-({5-methoxy-6-[(3S)-3-methylmorpholin-4-yl]pyridin-3-yl}methyl)piperazin-1-yl]-7-azaspiro[3.5]nonan-7-yl}-N-[(3R)-5-nitro-3-(oxan-4-yl)-3,4-dihydro-2H-1,4-benzoxazin-7-ylsulfonyl]benzamide] |  | 1.4 |
